Like-named read-outs stand apart in the source and are kept apart here.
Molecular target: human PD-L1 / Human PD-1 (Homo sapiens (Human), UniProt Q9NZQ7)
Assay: Enzyme-Linked Immunosorbent Assay (ELISA), PD-1/PD-L1 binding
Details: plate-coated human PD-L1, biotinylated human PD-1, read-out: ELISA IC50
In short: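 Human PD-L1 coated at 1 μg/mL overnight at 4° C; samples diluted 1:5 and incubated with human PD-1 and biotin (0.3 μg/mL) for 1 h at 37° C. Bound PD-1 detected with streptavidin-HRP and TMB (20 min, 37° C), acid-stopped, absorbance at 450 nm.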

Chain of human PD-L1 / Human PD-1 (Q9NZQ7 19-239): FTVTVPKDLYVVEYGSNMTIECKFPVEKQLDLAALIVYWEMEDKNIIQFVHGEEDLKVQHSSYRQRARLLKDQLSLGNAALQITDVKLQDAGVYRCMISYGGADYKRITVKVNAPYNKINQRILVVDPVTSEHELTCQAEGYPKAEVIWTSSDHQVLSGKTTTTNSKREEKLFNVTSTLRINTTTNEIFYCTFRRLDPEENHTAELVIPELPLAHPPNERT

| SMILES | IC50 (Table 2) | IC50 (Table 3) |
| --- | --- | --- |
| COc1cccc(-c2ccc(F)c3c2CCC3Oc2cc(OCc3cncc(C#N)c3)c(CN[C@@H](CO)C(=O)O)cc2Cl)c1F (stereo partly drawn) [Example 2.047] | < 0.1 µM | – |
| N#Cc1ccnc(COc2cc(O[C@H]3CCc4c(-c5ccc6c(c5F)OCCO6)cccc43)c(Cl)cc2CN[C@@H](CO)C(=O)O)c1 [Example 3.026] | – | < 0.1 µM |
| N#Cc1cncc(COc2cc(O[C@H]3CCc4c(-c5cc6c(cc5F)OCCO6)cccc43)c(Cl)cc2CN[C@H](O)CO)c1 [Example 3.007] | – | < 0.1 µM |
| CS(=O)(=O)c1cc(COc2cc(O[C@H]3CCc4c(-c5ccccc5F)cccc43)c(Cl)cc2CN[C@@H](CO)C(=O)O)cc(S(C)(=O)=O)c1 [Example 3.001] | – | < 0.1 µM |
| CC(NCc1cc(Cl)c(O[C@H]2CCc3c(-c4ccccc4F)cccc32)cc1OCc1cncc(C#N)c1)c1ccn(C)n1 (stereo partly drawn) [Example 3.066] | – | 0.1 to 0.5 µM |
| N#Cc1cncc(COc2cc(O[C@H]3CCc4c(-c5ccc6c(c5F)OCCO6)cccc43)c(Cl)cc2CN[C@@H](CO)C(=O)O)c1 [Example 3.008] | – | < 0.1 µM |
| N#Cc1cncc(COc2cc(O[C@H]3CCc4c(-c5ccccc5F)cccc43)c(Cl)cc2CN2CCC(F)CC2)c1 [Example 2.093] | 0.5 to 20 µM | – |
| N#Cc1cncc(COc2cc(O[C@H]3CCc4c(-c5ccccc5F)cccc43)c(Cl)cc2CN2CC[C@H](O)[C@@H](F)C2)c1 [Example 2.114] | 0.5 to 20 µM | – |
| N#Cc1cncc(COc2cc(OC3CCc4c(-c5ccccc5)cccc43)c(Cl)cc2CN2CCC2)c1 (stereo not drawn) [Example 1.006] | 0.1 to 0.5 µM | – |
| N#Cc1cncc(COc2cc(O[C@H]3CCc4c(-c5ccccc5F)cccc43)c(Cl)cc2CN2CCC(C(=O)O)C2)c1 (stereo partly drawn) [Example 2.032] | < 0.1 µM | – |
| O=C(O)c1cncc(COc2cc(O[C@H]3CCc4c(-c5ccc6c(c5F)OCCO6)cccc43)c(Cl)cc2CN[C@@H](CO)C(=O)O)c1 [Example 3.030] | – | 0.1 to 0.5 µM |
| N#Cc1cc(C#N)cc(COc2cc(O[C@H]3CCc4c(-c5ccc6c(c5)OCCO6)cccc43)c(Cl)cc2CN[C@@H](CO)C(=O)O)c1 [Example 3.002] | – | < 0.1 µM |
| COc1cccc(-c2cccc3c2CCC3CCOc2cc(OCc3cncc(C#N)c3)c(CN3CCC(O)CC3)cc2Cl)c1F (stereo not drawn) [Example 2.087] | 0.5 to 20 µM | – |
| COc1cccc(-c2cccc3c2CC[C@@H]3Oc2cc(OCc3cncc(C#N)c3)c(CN[C@@H](CO)C(=O)O)cc2Cl)c1F [Example 2.028] | < 0.1 µM | – |
| C[C@H](NCc1cc(Cl)c(O[C@H]2CCc3c(-c4ccccc4F)cccc32)cc1OCc1cncc(C#N)c1)C(=O)N[C@@H](C)P(=O)(O)O [Example 3.086] | – | < 0.1 µM |
| COc1cccc(-c2cccc3c2CC[C@@H]3Oc2cc(OCc3cncc(C#N)c3)c(CN3CCC(O)CC3)cc2Cl)c1Cl [Example 2.071] | 0.1 to 0.5 µM | – |
| COC(=O)c1cccc(COc2cc(O[C@H]3CCc4c(-c5ccccc5F)cccc43)c(Cl)cc2CN2CCC(O)CC2)c1 [Example 2.089] | 0.5 to 20 µM | – |
| N#Cc1cncc(COc2cc(O[C@H]3CCc4c(-c5ccccc5F)cccc43)c(Cl)cc2CN[C@H]2CCC[C@H](O)C2)c1 [Example 3.040] | – | < 0.1 µM |
| CC(C)C[C@H](NCc1cc(Cl)c(O[C@H]2CCc3c(-c4ccccc4F)cccc32)cc1OCc1cncc(C#N)c1)C(=O)O [Example 2.092] | 0.1 to 0.5 µM | – |
| N#Cc1cncc(COc2cc(O[C@H]3CCc4c(-c5ccccc5F)cccc43)c(Cl)cc2CNCCCN2CCN(CCO)CC2)c1 [Example 3.089] | – | 0.1 to 0.5 µM |
| O=C(O)[C@H](CO)NCc1cc(Cl)c(O[C@H]2CCc3c(-c4ccccc4F)cccc32)cc1OCC1CC1 [Example 2.038] | 0.1 to 0.5 µM | – |
| CCCOc1cc(O[C@H]2CCc3c(-c4ccccc4F)cccc32)c(Cl)cc1CN[C@@H](CO)C(=O)O [Example 2.074] | 0.1 to 0.5 µM | – |
| CCOC(=O)[C@](C)(CO)NCc1cc(Cl)c(O[C@H]2CCc3c(-c4ccc5c(c4F)OCCO5)cccc32)cc1OCc1cncc(C#N)c1 [Example 3.031] | – | 0.1 to 0.5 µM |
| COc1cccc(-c2cccc3c2CC[C@@H]3Oc2cc(OCc3cncc(C#N)c3)c(CN3CC(O)C(C(=O)O)C3)cc2Cl)c1F (stereo partly drawn) [Example 2.064] | < 0.1 µM | – |

Source: patent US10639284B2, “Immunomodulator compounds” (CHEMOCENTRYX, INC., priority 2016, dated 2020)
